Key:
Staphylococcus aureus [1] = test: Inhibition of yellow pigment production in methicillin-resistant Staphylococcus aureus at 20 ug/6mm disk after 68 hrs by paper disk method; type: functional
Staphylococcus aureus [2] = test: Toxicity in methicillin-resistant Staphylococcus aureus assessed as growth inhibition at 20 ug/6mm disk after 68 hrs; type: organism-based; conditions: in vitro

| SMILES | inhibition zone (IZ) (Staphylococcus aureus [1]) [mm] | Activity (Staphylococcus aureus [2]) |
| --- | --- | --- |
| COC(=O)[C@@]1(O)C(c2ccc(O)cc2)=C(O)C(=O)[C@@]1(OC)c1ccc(O)cc1 | 8 | Non-toxic |
| COC(=O)[C@]1(O)C(c2ccc(O)cc2)=C(O)C(=O)[C@]1(OC)c1ccc(O)cc1 | 9 | Non-toxic |
| COC(=O)[C@@]1(O)C(c2ccc(O)cc2)=C(O)C(=O)[C@@]1(O)c1ccc(O)cc1 | 7 | Non-toxic |
| COC(=O)[C@]1(O)C(c2ccc(O)cc2)=C(O)C(=O)[C@]1(O)c1ccc(O)cc1 | 7 | Non-toxic |
